Laboratory results published in publication PMC6835155, “Lessons from LIMK1 enzymology and their impact on inhibitor design” (Biochemical Journal, 2019).
Structures can show the parent of a compound that is named as a salt.

Columns and labels:
[1] = biological target: T1, LIMK1KD (Homo sapiens, UniProt P53667); test: Differential (dynamic) scanning fluorimetry (DSF) assay, LIMK1KD; type: binding; conditions: 2 µM LIMK1KD, compound 10 µM, single shot; for ΔTm at 10 µM: read-out: TM Shift LIMK1 (K)
T1 construct: His6 (N, cleaved yes); made in house; host or cells: baculovirus; Sf9 for virus, TriEx insect cells for expression

[2] = biological target: T2, LIMK2KD (Homo sapiens, UniProt P53671); test: Differential (dynamic) scanning fluorimetry (DSF) assay, LIMK2KD; type: binding; conditions: LIMK2KD, compound 10 µM, single shot; for ΔTm at 10 µM: read-out: TM Shift LIMK2 (K)
T2 construct: The cDNA coding for LIMK2 residues 330 to 632 was PCR amplified; His6 (N, cleaved yes); made in house; host or cells: baculovirus; Sf9 for virus, TriEx insect cells for expression
T2 sequence (P53671 330-632): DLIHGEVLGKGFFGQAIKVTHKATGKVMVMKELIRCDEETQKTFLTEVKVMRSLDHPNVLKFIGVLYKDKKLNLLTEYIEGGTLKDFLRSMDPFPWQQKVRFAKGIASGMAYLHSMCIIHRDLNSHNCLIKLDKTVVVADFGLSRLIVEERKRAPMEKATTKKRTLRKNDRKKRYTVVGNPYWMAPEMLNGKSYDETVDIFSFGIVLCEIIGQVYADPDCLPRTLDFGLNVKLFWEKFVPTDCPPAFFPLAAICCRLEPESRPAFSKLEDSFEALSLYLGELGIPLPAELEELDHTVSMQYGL

T1 sequence (P53667 330-637): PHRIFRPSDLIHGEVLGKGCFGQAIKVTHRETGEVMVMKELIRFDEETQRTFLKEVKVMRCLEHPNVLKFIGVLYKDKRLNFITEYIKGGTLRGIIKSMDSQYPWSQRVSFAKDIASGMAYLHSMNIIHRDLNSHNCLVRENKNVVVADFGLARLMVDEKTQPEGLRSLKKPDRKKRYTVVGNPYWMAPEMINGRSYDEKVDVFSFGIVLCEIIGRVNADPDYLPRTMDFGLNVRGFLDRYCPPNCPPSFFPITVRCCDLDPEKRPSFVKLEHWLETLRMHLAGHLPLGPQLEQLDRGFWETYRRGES

Row | Compound | TM Shift LIMK1 (K) [1] [K] | TM Shift LIMK2 (K) [2] [K] | ΔTm at 10 µM [1] [°C] | ΔTm at 10 µM [2] [°C] | also measured
1 | CS(=O)(=O)O.Cn1cc(C2=C(c3cn(CCCSC(=N)N)c4ccccc34)C(=O)NC2=O)c2ccccc21 [Ro 31-8220 Mesylate] | 1.6 | 1.2 | – | – | –
2 | CN1CCC(CNc2ccc3ncc(-c4cccc(OC(F)(F)F)c4)n3n2)CC1 [SGI-1776 free base] | 1.7 | 1.4 | – | – | –
3 | Cc1c(C(=O)N2CCOc3ccc(-c4ccc(N)nc4)cc3C2)ccc(S(C)(=O)=O)c1F [XL388] | -1.4 | 2.7 | – | – | –
4 | CC(C)(C)c1cc(/C=C(\C#N)C(N)=S)cc(C(C)(C)C)c1O [Tyrphostin AG 879] | – | – | 0.1 | 1.2 | –
5 | Cc1ccccc1-n1c(Cn2ncc3c(N)ncnc32)nc2cccc(C)c2c1=O [PIK-293] | 0.6 | 0.9 | – | – | –
6 | CC(C)(C)c1cc(C=C(C#N)C#N)cc(Br)c1O [AG-1024] | 2.5 | 4.3 | – | – | –
7 | Cc1ccc(NC(=O)c2cccc(N(C)C)c2)cc1NC(=O)c1ccc(O)cc1 [ZM 336372] | 0.7 | 0.2 | – | – | –
8 | CC(C)NC[C@@H](C(=O)N1CCN(c2ncnc3c2[C@H](C)C[C@H]3O)CC1)c1ccc(Cl)cc1 [GDC-0068] | -0.4 | – | – | – | TM Shift LIMK2 (K) ([2]; 10 µM): -0.4 K
9 | CC(C)(O)CC(=O)NCCn1ccc2ncnc(Nc3ccc(Oc4cccc(C(F)(F)F)c4)c(Cl)c3)c21 [TAK-285] | – | – | -1.1 | 0 | –
10 | CCC(=O)Nc1cccc(Oc2nc(Nc3ccc(N4CCN(C)CC4)cc3OC)ncc2Cl)c1 [WZ4003] | – | – | 0.4 | -0.8 | –
11 | Nc1ncnc2c1c(-c1cccc(OCc3ccccc3)c1)cn2[C@H]1C[C@@H](CN2CCC2)C1 [NVP-AEW541] | – | – | -0.2 | 0.4 | –
12 | CO[C@H]1C[C@@H]2CC[C@@H](C)[C@@](O)(O2)C(=O)C(=O)N2CCCC[C@H]2C(=O)O[C@H]([C@H](C)C[C@@H]2CC[C@@H](OP(C)(C)=O)[C@H](OC)C2)CC(=O)[C@H](C)/C=C(\C)[C@@H](O)[C@@H](OC)C(=O)[C@H](C)C[C@H](C)/C=C/C=C/C=C/1C [Ridaforolimus (Deforolimus, MK-8669), Ridaforolimus] | – | – | 0.1 | 0.2 | –
13 | Cc1c[nH]c(-c2cnc(NCCNc3ccc(C#N)cn3)nc2-c2ccc(Cl)cc2Cl)n1 [CHIR-99021 (CT99021) HCl] | – | – | 3.1 | -0.3 | –
14 | COc1ncc(-c2ccc3nccc(-c4ccnnc4)c3c2)cc1NS(=O)(=O)c1ccc(F)cc1F [GSK2126458 (GSK458)] | 1.2 | 0.9 | – | – | –
15 | O=C(NC1CCNCC1)c1[nH]ncc1NC(=O)c1c(Cl)cccc1Cl [AT7519] | – | – | 1.2 | 1.3 | –
16 | NC1(Cc2ccc(Cl)cc2)CCN(c2ncnc3[nH]ccc23)CC1 [CCT128930] | 0.4 | 1.0 | – | – | –
17 | C#Cc1cccc(Nc2ncnc3cc(OCCOC)c(OCCO)cc23)c1 [OSI-420] | 0.1 | -0.1 | – | – | –
18 | CN(C)CCOc1ccc(-c2nc(-c3ccncc3)c(-c3ccc4c(c3)CC/C4=N\O)[nH]2)cc1 [SB590885] | – | – | 0.1 | 1 | –
19 | COc1ccc(-c2ccc3c(N4CCOC[C@@H]4C)nc(N4CCOC[C@@H]4C)nc3n2)cc1CO [AZD8055] | – | – | 0.9 | 0.8 | –
20 | O=c1ncn2nc(Sc3ccc(F)cc3F)ccc2c1-c1c(Cl)cccc1Cl [VX-745] | – | – | 0.6 | 1.3 | –
21 | C[C@@H]1COCCN1c1cc(C2(S(C)(=O)=O)CC2)nc(-c2cccc3[nH]ccc23)n1 [AZ20] | 0.8 | -0.8 | – | – | –
22 | CCc1cccc(CC)c1NC(=O)N1Cc2n[nH]c(NC(=O)c3ccc(N4CCN(C)CC4)cc3)c2C1 [PHA-680632] | – | – | 5 | 0.4 | –
23 | COc1ccc(CNC(=O)Nc2ncc([N+](=O)[O-])s2)cc1 [AR-A014418] | 1.4 | 1.0 | – | – | –
24 | CCc1nc(-c2cccc(C)c2)c(-c2ccnc(NC(=O)c3ccccc3)c2)s1 [TAK-715] | – | – | 0.4 | 2.6 | –
25 | O=c1cc(N2CCOCC2)oc2c1ccc1ccccc12 [NU7026] | -0.7 | 3.0 | – | – | –
26 | O=C1Nc2ccccc2/C1=C1/Nc2ccccc2C1=O [Indirubin] | – | – | 1.4 | 2.6 | –
27 | S=C(NCc1ccc2c(c1)OCO2)N1CCN(c2ncnc3c2oc2ccccc23)CC1 [Amuvatinib (MP-470), Amuvatinib] | – | – | -0.3 | 2.3 | –
28 | COc1ccc(Cl)c(Nc2nc3ccccc3nc2NS(=O)(=O)c2cccc(NC(=O)C(C)(C)N)c2)c1 [Pilaralisib] | – | – | -0.1 | 0.4 | –

Row | Compound | TM Shift LIMK1 (K) [1] [K] | TM Shift LIMK2 (K) [2] [K] | ΔTm at 10 µM [1] [°C] | ΔTm at 10 µM [2] [°C] | also measured
29 | CCn1c(=O)c(-c2cc[nH]n2)cc2c(C)nc(N)nc21 [Voxtalisib] | 0.2 | – | – | – | TM Shift LIMK2 (K) ([2]; 10 µM): 0.4 K
30 | O=C(c1ccc(/C=C/c2n[nH]c3ccccc23)cc1)N1CCNCC1 [KW-2449] | – | – | 1.7 | 0.8 | –
31 | CCN(CCO)CCCOc1ccc2c(Nc3cc(CC(=O)Nc4cccc(F)c4)[nH]n3)ncnc2c1 [AZD1152-HQPA, Barasertib] | 0.6 | – | – | – | TM Shift LIMK1 (K) ([1]; listed as Barasertib (AZD1152-HQPA)): 0.2 K; TM Shift LIMK2 (K) ([2]; 10 µM): 0.7 K; TM Shift LIMK2 (K) ([2]; listed as Barasertib (AZD1152-HQPA), 10 µM): -0.2 K
32 | O=C(O)[C@]1(Cc2cccc(Nc3nccs3)n2)CC[C@@H](Oc2cccc(Cl)c2F)CC1 [MK-5108 (VX-689)] | – | – | 1.5 | 0.9 | –
33 | COCCNCc1ccc(-c2cc3nccc(Oc4ccc(NC(=S)NC(=O)Cc5ccc(F)cc5)cc4F)c3s2)nc1 [MGCD-265] | – | – | 3.6 | 1.1 | –
34 | COc1cc(Nc2c(C#N)cnc3cc(OCCCN4CCN(C)CC4)c(OC)cc23)c(Cl)cc1Cl [Bosutinib (SKI-606), Bosutinib] | – | – | 0.1 | 1.3 | –
35 | O=C(c1cccc(Cl)c1F)N1CCN(Cc2cccc(Nc3nccs3)n2)CC1 [MK-8745] | 1.0 | -0.3 | – | – | –
36 | CCc1cc(Nc2nccc(-c3c(-c4ccc(OC)c(C(=O)Nc5c(F)cccc5F)c4)nc4ccccn34)n2)c(OC)cc1N1CCC(N2CCN(S(C)(=O)=O)CC2)CC1 [GSK1904529A] | 0.8 | 0.7 | – | – | –
37 | COc1cc2nccc(Oc3ccc(NC(=O)C4(C(=O)Nc5ccc(F)cc5)CC4)cc3)c2cc1OC [Cabozantinib (XL184, BMS-907351), Cabozantinib] | – | – | 2.5 | 0.6 | –
38 | N#C/C(=C\c1ccc(O)c(O)c1)C(=O)NCc1ccccc1 [AG-490 (Tyrphostin B42), Tyrphostin B42] | 0.7 | 0.9 | – | – | –
39 | CCn1c2ccccc2c2cc(Nc3ccnc(NCCCN4CCOCC4)n3)ccc21 [EHop-016] | -0.1 | -0.7 | – | – | –
40 | Cn1cnc2c(F)c(Nc3ccc(Br)cc3Cl)c(C(=O)NOCCO)cc21 [Selumetinib (AZD6244), Selumetinib] | – | – | 0.1 | 0.6 | –
41 | Cc1c(Cn2c(C)nc3c(C(=O)O)cc(N4CCOCC4)cc32)cccc1C(F)(F)F [GSK2636771] | – | – | 0.1 | 2 | –
42 | O=c1sn(-c2cccc3ccccc23)c(=O)n1Cc1ccccc1 [Tideglusib] | – | – | -0.5 | 3.9 | –
43 | Cc1cc(F)c(Nc2ncnc3cc(OCc4ccccc4)ccc23)cc1O.Cl [ZM 323881 HCl] | 0.0 | 2.6 | – | – | –
44 | COc1cc(O)c2c(c1)/C=C/C[C@H](O)[C@H](O)C(=O)/C=C\C[C@H](C)OC2=O [(5Z)-7-Oxozeaenol] | 2.8 | 0.7 | – | – | –
45 | O=C1Nc2ccc(I)cc2/C1=C/c1cc(Br)c(O)c(Br)c1 [GW5074] | 0.0 | 5.6 | – | – | –
46 | CCCS(=O)(=O)Nc1ccc(F)c(C(=O)c2c[nH]c3ncc(Cl)cc23)c1F [PLX-4720] | – | – | 2.5 | 3.8 | –
47 | C=CC(=O)Nc1cccc(Oc2nc(Nc3ccc(N4CCN(C)CC4)cc3)ncc2Cl)c1 [WZ3146] | 1.9 | 1.5 | – | – | –
48 | COc1cc2c(Nc3ccc(Br)cc3F)ncnc2cc1OCC1CCN(C)CC1 [Vandetanib (ZD6474), Vandetanib] | – | – | 0.1 | 0.1 | –
49 | CCC(=O)N1CCN(c2ccc(-n3c(=O)ccc4cnc5ccc(-c6cnc7ccccc7c6)cc5c43)cc2C(F)(F)F)CC1 [Torin 1] | – | – | -0.2 | 3.1 | –
50 | COc1cc(Nc2ncc3c(n2)-c2ccc(Cl)cc2C(c2c(F)cccc2OC)=NC3)ccc1C(=O)O [Alisertib (MLN8237), Alisertib] | – | – | -0.3 | 1.8 | –
51 | Cc1[nH]c(/C=C2\C(=O)Nc3ccc(S(=O)(=O)N(C)c4cccc(Cl)c4)cc32)c(C)c1C(=O)N1CCN(C)CC1 [SU11274] | – | – | 1.4 | -0.2 | –
52 | CC(C)(C)Cn1c(N)nc2ccc(-c3[nH]c(C(C)(C)C)nc3-c3ccc(F)cc3)nc21 [LY2228820] | 2.1 | – | – | – | TM Shift LIMK2 (K) ([2]; 10 µM): 4.4 K
53 | COc1ccc2c(c1)c(C1=C(c3c[nH]c4ccccc34)C(=O)NC1=O)cn2CCCN(C)C [Go 6983] | 0.5 | 1.8 | – | – | –
54 | Cc1cnc(Nc2ccc(OCCN3CCCC3)cc2)nc1Nc1cccc(S(=O)(=O)NC(C)(C)C)c1 [Fedratinib] | – | – | 3.2 | 1.4 | –
55 | Nc1ccc(C(=O)Nc2cccc(-c3nc(N4CCOCC4)c4oc5ncccc5c4n3)c2)cn1 [YM201636] | 0.6 | 3.8 | – | – | –
